Source: patent US8691842B2, “Pharmaceutical composition for preventing or treating rheumatoid arthritis, containing rebamipide” (Catholic University Industry Academic Cooperation Foundation, priority 2009, dated 2014)
“Also recorded” adds a separate entry of the source.

Key:
Assay type in all cases: in vivo, DBA/1J mice
[1] = test system: collagen induced arthritis (CIA) animal model; assay: Average arthritis score in collagen induced arthritis (CIA) animals; conditions: CIA mice; rebamipide 0.6 mg/kg or 6 mg/kg orally, every other day, ten times; evaluated second to tenth week; FIG. 1
[2] = test system: collagen induced arthritis (CIA) animal model; assay: Histological test of joints and cartilage in CIA animals; conditions: CIA mice, FIG. 2
[3] = test system: CII-specific immunoglobulin (total IgG); assay: Serologic test (ELISA) measuring collagen-specific antibody in serum of CIA animals; conditions: CIA mice, rebamipide orally, serum diluted 1:8000, FIG. 3

O=C(NC(Cc1cc(=O)[nH]c2ccccc12)C(=O)O)c1ccc(Cl)cc1 (stereo not shown) [rebamipide]
arthritis score [1]: dose-dependently decreased; also recorded: gradually decreased
degree of joint and cartilage destruction ([2]; rebamipide 0.6 mg/kg or 6 mg/kg orally, sacrificed after 10 weeks, hematoxylin and eosin, toluidine blue, safranin O): remarkably reduced
degree of cartilage destruction ([2]; rebamipide orally, histological assay): improved, being similar to that of a normal mouse
level of Type II collagen-specific immunoglobulin (total IgG) in serum [3]: significantly decreased
